Reference: PMC9871035, “Discovery of structural and functional transition sites for membrane-penetrating activity of sheep myeloid antimicrobial peptide-18” (Scientific Reports, 2023)
Where no end group is shown, it is not given here.

Tests used:
[1] = tested on: Gram-negative and Gram-positive bacteria; experiment: MIC over the panel of six strains (GM, range); format: cell-based; details: six strains of Table 1; average value ± SD
Protocol: The antimicrobial activity of the peptides, i.e., their MIC values, were determined against Escherichia coli (KCTC 1682), Salmonella typhimurium (KCTC 1926), Pseudomonas aeruginosa (KCTC 1637), Bacillus subtilis (KCTC 3068), Staphylococcus epidermidis (KCTC 1917), Staphylococcus aureus (KCTC 1621), and Methicillin-resistant Staphylococcus aureus (CCARM 3089, 3090 and 3095) using broth microdilution in a 96-well plate according to existing methodologies[23]. Bacteria were grown at 37 ℃ on a spinner culture until a mid-log phase diluted to 2 × 10^6 CFU/ml in 1% peptone. The bacterial suspension was added to 100 μl of the sample solution (i.e., serial twofold dilution in 1% peptone). […] All experiments were performed in triplicate and included growth and sterility controls.

[2] = Estimation of helicity from CD; format: physicochemical; details: peptide 100 μM, from [θ]mr at 222 nm; for % α-helix, H2O: H2O (10 mM sodium phosphate, pH 7.0)
Protocol: CD spectra were measured on a J-810 spectropolarimeter (JASCO) using a 1.0 mm path-length cell. […] Three scans were conducted from 190 to 260 nm and the data are expressed in terms of mean residue molar ellipticity [θ]mr. The mean residue ellipticity, [θ]mr (deg cm^2 dmol^-1), was calculated according to the equation [θ]mr = (100θ)/(clN), where θ is the measured ellipticity (mdeg), c is the sample concentration (mM), l is the path length (cm), and N is the number of amino acids. Percent α-helicity was calculated using the equation ([θ]mr222nm—3000)/(− 39,000 × 100)[29]. Reference values for [θ]mr222nm = 0 and 36,000 (deg cm^2 dmol^−1) were used for 0% and 100% helicity, respectively[30].

[3] = tested on: S. aureus (KCTC 1621); experiment: SYTOX Green uptake assay; format: cell-based, Staphylococcus aureus; details: 2 × MIC, SYTOX 0.1 μM, PBS pH 7.4
Protocol: The membrane permeabilization activity of the peptides was determined by using the SYTOX Green uptake assay, as described previously[33]. S. aureus (KCTC 1621) grown at 37 ℃ until the mid-log phase (OD600 = 0.4). The cell pellet was washed using PBS (pH 7.4) and was diluted to an OD600 = 0.05 in PBS (pH 7.4); SYTOX was added to the final concentration of 0.1 μM and this solution was pre-incubated in the dark at 4 ℃ for 16 h. Fluorescence was monitored using a F-4500 FL spectrophotometer (Hitachi, Japan) and excitation and emission wavelengths of 480 nm and 520 nm, respectively.

[4] = tested on: S. aureus (KCTC 1621); experiment: Confocal laser scanning microscopy of FITC-labeled peptides; format: cell-based, Staphylococcus aureus; details: FITC-labeled peptide 10 μM, 37 ℃, 30 min
Protocol: (§1) E. coli (KCTC 1682) and S. aureus (KCTC 1621) were grown at mid-log phase and washed three times with PBS (pH 7.4). The bacteria were diluted at 10^6 CFU/ml and incubated with FITC-labeled peptides (10 μM) at 37 ℃ for 30 min. After incubation, this solution was washed thrice with PBS and was then transferred to a confocal dish. […] Fluorescent images were obtained with a 488 nm bandpass filter for FITC excitation.

[5] = tested on: E. coli (KCTC 1682); experiment: as above; format: cell-based, Escherichia coli; details: FITC-labeled peptide 10 μM, 37 ℃, 30 min
Protocol: as §1

[6] = tested on: S. aureus (KCTC 1621) cytoplasmic membrane; experiment: Membrane depolarization assay (diSC3-5); format: cell-based, Staphylococcus aureus; details: 2 × MIC, monitored over 1400 s
Protocol: The cytoplasmic membrane depolarization activity of the peptides was measured using the membrane potential sensitive dye diSC3-5, as previously described[31],[32]. Briefly, S. aureus (KCTC 1621) was grown at 37 ℃ with agitation until the mid-log phase (OD600 = 0.3) and was harvested by centrifugation. Cells are washed twice with a buffer solution (i.e., 20 mM Glucose, 5 mM HEPES, 100 mM KCl; pH 7.4) and were resuspended to an OD600 = 0.05 in the buffer. Membrane depolarization was monitored by recording changes in the intensity of fluorescence emission of diSC3-5 after peptide concentration.

Substance | GM (geometric mean of MIC values from selected bacterial strains) [1] | % α-helix, 50% TFE [2] [%] | % α-helix, H2O [2] [%] | SYTOX Green uptake (fluorescence) [3] | Localization of peptide in S. aureus [4] | Localization of peptide in E. coli [5] | Membrane depolarization of S. aureus (diSC3-5 fluorescence) [6]
RGLRRLG-NH2 [R1-G7] | > 64 µM | 6.9 | 5.6 | – | – | – | –
RALRRLARKIAHAVKKYG-NH2 [G2,7,13A] | 4.3(± 2.9) μM | 44.4 | 5.7 | induced the maximal fluorescence | likely bound to the cell membrane | likely bound to the cell membrane | induced a significant membrane depolarization
RGLRRLARKIAHAVKKYG-NH2 [G7,13A] | 4.5(± 2.9) μM | 33.9 | 7.6 | induced the maximal fluorescence | – | – | induced a significant membrane depolarization
